We go through five compounds from patent US9029345B2, “Selective inhibitors of translesion DNA replication” (Case Western Reserve University, priority 2005, dated 2015).

Data set [1] relates to control Sf9 membranes. The experiment in a line: ATPase activity of control Sf9 membranes. It counts as biochemical. As for the experimental part:
(§1) The in vitro activity of the triphosphate of 5-CHInd (5-CHITP) against P-gp was evaluated through its ability to inhibit vinblastine-stimulated ATP hydrolysis. These experiments used purified P-gp membranes expressed and isolated in Sf9 insect cells (BD Biosciences). ATP hydrolysis was quantified by the amount of ^32Pi release from γ^32P-ATP as a function of time. Reactions containing vinblastine were initiated by the addition of membranes and quenched in trichloroacetic acid and ammonium heptamolybdate. Heptamolybdophosphoric acid was separated by organic phase extraction and the presence of ^32Pi was quantified by liquid scintillation counting. […] The inhibition of 5-CHITP is selective for P-gp as the ATPase activity of control Sf9 membranes is not inhibited whereas sodium orthovanadate inhibits by about 50%.

Data set [2] concerns the target T1, P-gp (Homo sapiens, UniProt P08183). The experiment in a line: vinblastine-stimulated ATP hydrolysis by purified P-gp membranes (32Pi release). The class given is biochemical. Further details: endogenous in cells. Here is the method: as §1
Data set [3] has as its target T1, P-gp.
Data set [4] has as its system SKOV/VBL cells. The experiment in a line: potentiation of vinblastine in SKOV/VBL cells. It counts as cell-based. The note with it: 25 or 50 μg/ml 5-CHInd with 0.5 or 1 μg/ml vinblastine. As for the experimental part:
(§2) The potentiation of vinblstine by 5-CHInd was also assessed in MDR negative cesll (SKOV3) and MDR positive SKOV/VBL cells by administering various concentrations of vinblastine and 5-CHInd to the cells. FIG. 6 is a graph illustrating the cytoxic effect of 25 μg/ml of 5-CHInd (CH25), 50 μg/ml of 5-CHInd (CH50), 0.5 μg/ml of vinblastine (VinB 0.5), 1 μg/ml of vinblastine (VinB 1), 25 μg/ml of 5-CHInd in combination with 0.5 μg/ml of vinblastine (CH25+VinB 0.5), 25 μg/ml of 5-CHInd in combination with 1 μg/ml of vinblastine (CH25+VinB 1), 50 μg/ml of 5-CHInd in combination with 0.5 μg/ml of vinblastine (CH50+VinB 0.5), and 50 μg/ml of 5-CHInd in combination with 1 μg/ml of vinblastine (CH50+VinB 1) administered respectively to SKOV3 and SKOV/VBL cells.

The test system of data set [5] is SKOV3 cells. As to the kind of experiment: potentiation of vinblastine in SKOV3 cells. The class given is cell-based. The following applies: 25 or 50 μg/ml 5-CHInd with 0.5 or 1 μg/ml vinblastine. Here is the method:
as §2

The subject of data set [6] is CDKs. As to the kind of experiment: flow cytometry, cell cycle. The following applies: preliminary flow cytometry data. It counts as cell-based. For orientation: In flow cytometry, cells or beads pass a laser one at a time.
For data set [7], the system named is CEM-C7 cells. The experiment in a line: intracellular [3H]-vinblastine accumulation and efflux in CEM-C7 cells. The class given is cell-based. The following applies: devoid of P-gp.
Data set [8] deals with T1, P-gp. The experiment in a line: intracellular [3H]-vinblastine accumulation and efflux in CEM-VBL cells. Further details: endogenous in cells. It counts as cell-based. Here is the method:
Intracellular drug accumulation studies use confluent CEM-C7 and CEM-VBL cells incubated with [^3H]-vinblastine (Moravek Biochemicals, Brea, Calif.) in the absence or presence of 5-CHInd. After attainment of equilibrium, cells are harvested and washed to remove any unbound [^3H]-vinblastine. Washed cells are then solubized and the retained radioactivity is quantified by liquid scintillation techniques. Measured radioactivity is normalized for protein content, and drug accumulation is expressed as a percentage of the vehicle control.
To measure the effect of 5-CHInd on the efflux of [^3H]-vinblastine, CEM-VBL cells are incubated with a sub-lethal dose of 5-CHInd or vehicle (DMSO) followed by the addition of a fixed concentration of [^3H]-vinblastine. After attainment of equilibrium, cells are washed and aliquots are analyzed for [^3H]-vinblastine accumulation at variable times (5 to 120 minutes). The efflux rate constant is obtained from a fit of the data to y=Ae^−kt where y is the amount of radioactivity at time t, A is maximal amplitude in accumulation, k is the efflux rate constant, and t is time.

For data set [9], the target named is T2, P-glycoprotein (Homo sapiens, UniProt P08183).
T2 construct: endogenous in cells; host or cells: CEM/VBL (CEM-VBL) leukemia cells
The experiment in a line: NIMH Psychoactive Drug Screening Program (PDSP) screen. The note with it: first determined using PDSP. From the text:
(§3) This was first determined using the NIMH Psychoactive Drug Screening Program (PDSP) which performs pharmacological and functional screens of novel compounds. This initial screening effort lead us to test the ability of 5-CHInd to block the export of Hoechst dye, a known substrate for P-gp. Control experiments verify that CEM cells not overexpressing p-glycoprotein show accumulation of the Hoechst dye as indicated by nuclear staining (FIG. 3A).

The target of data set [10] is T2, P-glycoprotein. As to the kind of experiment: export of Hoechst dye from CEM/VBL cells overexpressing P-gp. It counts as cell-based. The following applies: sub-lethal concentration, compared to untreated CEM/VBL.
Text: as §3

The subject of data set [11] is leukemia cell lines.
The target of data set [12] is T1, P-gp. The experiment in a line: control experiments: potentiation of other chemotherapeutic agents. The following applies: does not inhibit P-gp.

T1 sequence (P08183 whole entry): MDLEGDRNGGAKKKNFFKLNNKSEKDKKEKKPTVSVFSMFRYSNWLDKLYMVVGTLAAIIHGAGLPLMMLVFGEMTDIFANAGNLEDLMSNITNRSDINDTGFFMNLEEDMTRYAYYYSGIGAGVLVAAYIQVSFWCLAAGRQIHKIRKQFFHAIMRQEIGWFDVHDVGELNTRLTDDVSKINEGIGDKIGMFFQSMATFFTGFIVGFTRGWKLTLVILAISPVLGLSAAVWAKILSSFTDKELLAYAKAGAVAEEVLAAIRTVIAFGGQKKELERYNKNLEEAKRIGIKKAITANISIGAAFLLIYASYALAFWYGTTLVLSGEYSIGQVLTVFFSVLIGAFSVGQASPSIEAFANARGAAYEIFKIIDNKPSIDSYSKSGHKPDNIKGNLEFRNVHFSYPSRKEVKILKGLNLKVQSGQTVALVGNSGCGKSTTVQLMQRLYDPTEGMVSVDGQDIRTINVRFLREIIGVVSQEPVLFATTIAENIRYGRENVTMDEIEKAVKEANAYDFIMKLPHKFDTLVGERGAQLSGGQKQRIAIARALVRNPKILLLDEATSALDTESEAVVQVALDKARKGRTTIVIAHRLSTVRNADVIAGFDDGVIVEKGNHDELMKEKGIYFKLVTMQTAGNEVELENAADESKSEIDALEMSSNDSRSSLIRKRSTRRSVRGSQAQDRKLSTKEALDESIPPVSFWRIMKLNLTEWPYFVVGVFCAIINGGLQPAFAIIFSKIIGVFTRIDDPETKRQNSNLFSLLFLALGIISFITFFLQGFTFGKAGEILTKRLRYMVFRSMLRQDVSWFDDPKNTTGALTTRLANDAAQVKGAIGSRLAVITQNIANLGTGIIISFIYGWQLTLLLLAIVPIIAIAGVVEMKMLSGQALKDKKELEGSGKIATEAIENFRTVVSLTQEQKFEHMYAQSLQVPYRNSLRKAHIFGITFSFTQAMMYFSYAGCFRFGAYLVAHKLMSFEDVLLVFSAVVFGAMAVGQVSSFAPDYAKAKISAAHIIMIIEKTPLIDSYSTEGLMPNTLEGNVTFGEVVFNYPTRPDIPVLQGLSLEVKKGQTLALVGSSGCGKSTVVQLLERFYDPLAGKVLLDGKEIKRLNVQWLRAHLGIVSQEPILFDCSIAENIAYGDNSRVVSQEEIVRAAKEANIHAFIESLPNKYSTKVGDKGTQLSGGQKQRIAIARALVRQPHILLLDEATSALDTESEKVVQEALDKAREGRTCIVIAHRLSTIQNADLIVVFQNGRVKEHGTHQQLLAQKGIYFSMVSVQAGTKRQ
T2 sequence (P08183 whole entry): as above

As for `O=P(O)(O)OP(=O)(O)OP(=O)(O)OC[C@H]1O[C@@H](n2ccc3cc(C4CCCCC4)ccc32)C[C@@H]1O` [5-CHITP], the “inhibition of ATPase activity of control Sf9 membranes” value in [1] (5-CHITP) was “not inhibited”. The “inhibition of ATPase activity of P-gp” value in [2] (50 μM) is 52%.
Regarding `OC[C@H]1OC(n2ccc3cc(C4CCCCC4)ccc32)C[C@@H]1O` (some centres unmarked) [5-CHInd, 5-cylclohexyl-1-indolyl-2-deoxyriboside], in data set [3], the “potentiation of the effects of 5-fluorouracil” value is on record as “does not potentiate”, the “potentiation of the effects of cisplatin” value is listed as “does not potentiate”, the “potentiation of the effects of doxorobucin” value is listed as “potentiates” and the “potentiation of the effects of paclitaxel” value is “potentiates”. The “potentiation of vinblastine (FIG. 6)” value in [4] was “potentiation of vinblastine”. Besides, in [5], the “potentiation of vinblastine (FIG. 6)” value was “potentiation of vinblastine”. In addition, the cell cycle arrest result in data set [6] is given as “induces cell cycle arrest”. Moreover, the “effect on accumulation or efflux of [3H]-vinblastine” value in [7] is listed as “no effect”. For the same compound, in data set [8], the “accumulation of [3H]-vinblastine” value was “significant accumulation”. Further, in data set [8] (compared to vehicle-treated cells), the “rate constant for drug efflux” value is “decrease in rate constant for drug efflux”. In addition, the “inhibition of p-glycoprotein activity” value in data set [9] is given as “can inhibit the activity of p-glycoprotein”. Moreover, the “accumulation of Hoechst dye (inhibition of P-gp export)” value in data set [10] is “enhanced accumulation of the Hoechst dye”. The LD50 entry in data set [11] is “about 20 μg/mL”. For the same compound, the “cytotoxic effect (flow cytometry, FIG. 2)” value in data set [11] (leukemia cells, closely mimics staurosporine) was “rapid cytotoxic effect”.
Turning to `OC[C@H]1OC(n2ccc3cc(-c4ccccc4)ccc32)C[C@@H]1O` (some centres unmarked) [5-PhInd], in data set [11] (at the concentrations tested, data not shown), the cell death result is listed as “cause cell death”.
For the compound `[Na+].[Na+].[Na+].[O]=[V]([O-])([O-])[O-]` [sodium orthovanadate, reference compound], the “inhibition of ATPase activity of control Sf9 membranes” value in data set [1] (sodium orthovanadate) was “about 50%”. For the same compound, the “inhibition of ATPase activity of P-gp” value in data set [2] (1 μM, compared with 52% by 50 μM 5-CHITP) is on record as “comparable”.
As for `CN[C@@H]1C[C@H]2O[C@@](C)([C@@H]1OC)n1c3ccccc3c3c4c(c5c6ccccc6n2c5c31)C(=O)NC4` [staurosporine], in [12], the “action as potentiating agent” value is on record as “does not act as a potentiating agent”.
